Source: patent US20120128745A1, “BENZYLIDENE MALONATES” (BASF SE, priority 2009, published 2012)

How the values were obtained:
[1] = photostability of 4-Methoxybenzylidene-di-tert-butyl-malonate in O/W emulsion film under solar simulator, HPLC; assay type: physicochemical; conditions: formulation A, solar simulator up to 10 h (50 MED)
Method: The photostability of Butyl 4-Methoxybenzylidene-di-tert-butyl-malonate is determined by spreading the emulsion as a 20 μm thick film on four quartz plates. The plates are irradiated using a solar simulator for 1 h (5 MED), 2 h (10 MED), 4 h (20 MED) and 10 h (50 MED). After the indicated irradiation times one of the quartz plate is plunged into 5 ml of tetrahydrofurane. The amount of UV-B filter 4-Methoxybenzylidene-di-tert-butyl-malonate is then determined using high performance liquid chromatography. The residual 4-Methoxybenzylidene-di-tert-butyl-malonate is determined to be 100% (±1%) in all cases.

[2] = stabilization (photostability) of Butyl Methoxydibenzoylmethane in O/W emulsion film under solar simulator, HPLC; assay type: physicochemical; conditions: 20 μm film on quartz plate, solar simulator 2 h (10 MED)
Method: Testing of stabilization of Butyl Methoxydibenzoylmethane (BMDBM, Parsol 1789):
The photostability of Butyl Methoxydibenzoylmethane is determined by spreading the emulsion as a 20 μm thick film on a quartz plate. The film is irradiated using a solar simulator for 2 h (10 MED). After irradiation, the quartz plate is plunged into 5 ml of tetrahydrofurane. The amount of UV-A filter Butyl Methoxydibenzoylmethane is then determined using high performance liquid chromatography. The residual Butyl Methoxydibenzoylmethane is determined to be 47%.
The photostability of Butyl Methoxydibenzoylmethane in the comparative formulation C is determined as described above for formulation B. The residual Butyl Methoxydibenzoylmethane is determined to be 4%.

photostability in an O/W sunscreen formulation [1]	residual Butyl Methoxydibenzoylmethane ([2]; comparative formulation C (without benzylidene malonate)) [%]	residual Butyl Methoxydibenzoylmethane ([2]; formulation B (with 4-Methoxybenzylidene-di-tert-butyl-malonate)) [%]	SMILES
complete photostability	–	–	COc1ccc(C=C(C(=O)OC(C)(C)C)C(=O)OC(C)(C)C)cc1 [Example 18, 4-Methoxybenzylidene-di-tert-butyl-malonate]
–	4	47	COc1ccc(C(=O)CC(=O)c2ccc(C(C)(C)C)cc2)cc1 [Butyl Methoxydibenzoylmethane, 1,3-Propanedione, 1-[4-(1,1-dimethylethyl)phenyl]-3-(4-methoxyphenyl)-]
